Data on 12 compounds can be found in patent publication US6300501A, “Histidine-(N-benzyl glycinamide) inhibitors of protein farnesyl transferase” (Warner-Lambert Company, priority 1998, dated 2001).

Experiment [1] relates to H61 cells: NIH transformed 3T3 H-ras cells. As to the kind of experiment: Clonogenic assay (6 well plates, soft agar). The class given is cell-based. As for the experimental part: Clonoaenic Assay (6 well lates)
Sometime previous to setting up an actual test:
1. Make up 1.5% Bacto Agar in Milli-Q water and autoclave.
2. Make up 500 mL 2× DMEM-HG without phenol red by combining the following:
1 bottle DMEM base powder (Sigma D-5030)
Adjust pH to 7.1 with HCL; filter sterilize.
1. Set up makeshift water bath (beaker of water with thermometer, on hot plate) in the hood. Keep water temperature between 37° C. to 43° C.
2. […] 1.5% Bacto Agar for approximately 2 minutes on high, or until completely melted. Then let it cool somewhat before using it. (You can keep it from resolidifying by setting the bottle on the hot plate.) […]
3. Bottom Layer (0.6% agar) Top Layer (0.3% agar)
20% calf serum 20% calf serum
40% Bacto Agar (1.5%) 20% Bacto Agar (1.5%)
Depending on the volume of each layer needed, use either 50 mL conical tubes or 200 mL turnip tubes which can be floated in the "water bath".
4. Add 1 mL of bottom layer agar/medium to each well: deliver 1 mL warm agar/medium to a well; then using the tip of the pipet, spread the agar/medium around to completely cover the bottom. Repeat with next well.
5. Allow the plates to set at room temperature for about 5 minutes until the bottom layer solidifies.
6. Label sterile Falcon 2054 (12×75 mm) tubes and add appropriate volume of drug solutions into them.
7. Aliquot 4 AL of DMSO or drug solution per 1 mL of agar/medium to appropriate tubes; then add the agar/medium/cells to each tube. Always add 1 mL more than will actually be needed. Mix up and down in the pipet (gently); then deliver 1 mL to the center of each well. The upper layer is less viscous, so it will generally spread out over the bottom layer unaided. If necessary, rotate the plane of the plate gently to spread the top layer evenly over the bottom layer.
8. Let plates set for 5 or 10 minutes at room temperature to solidify, then put into 5% CO2, 37° C. incubator.
9. On Day 13, add 0.5 mL of INT (tetrazolium 1 mg/mL in Milli-Q H2 O, filter sterilized) and return plates to incubator.

Experiment [2] concerns ras farnesylation in ras-transformed cells. As to the kind of experiment: Gel shift assay. Type of experiment: cell-based. Conditions: for minimal effective concentration: read-out: Gel Shift (μM) MED (minimal effective dose to observe inhibition of ras farnesylation). As for the experimental part: Twenty-four hours after planting 2×10^6 ras-transformed cells per treatment condition, the farnesylation inhibitor is added at varying concentrations. Following an 18-hour incubation period, cells are lysed in phosphate-buffered saline containing 1% Triton X-100, 0.5% sodium deoxycholate, and 0.1% SDS (sodium dodecyl sulfate), pH 7.4 in the presence of several protease inhibitors (PMSF (phenylmethylsulfonylfluoride), antipain, leupeptin, pepstatin A, and aprotinin all at 1 μg/mL). Ras protein is immunoprecipitated from the supernatants by the addition of 3 μg v-H-ras Ab-2 (Y13-259 antibody from Oncogene Science). After overnight immunoprecipitation, 30 μL of a 50% protein G-Sepharose slurry (Pharmacia) is added followed by 45-minute incubation. Pellets are resuspended in 2× tris-glycine loading buffer (Novex) containing 5% β-mercaptoethanol and then denatured by 5 minutes boiling prior to electrophoresis on 14% Tris-glycine SDS gels. Using Western transfer techniques, proteins are transferred to nitrocellulose membranes followed by blocking in blocking buffer. Upon overnight incubation with primary antibody (pan-ras Ab-2 from Oncogene Science), an antimouse HRP (horse radish peroxidase) conjugate secondary antibody (Amersham) is employed for detection of the ras protein. Blots are developed using ECL(enhanced chemiluminescence) techniques (Amersham).

Experiment [3] deals with T1, SF9 affinity purified rat farnesyl protein transferase (Rattus norvegicus, UniProt Q02293+Q04631).
T1 construct: made in house; host or cells: Sf9 insect cells (baculovirus system inferred from b7)
As to the kind of experiment: PFT inhibitory activity (radiolabeled farnesyl pyrophosphate, streptavidin bead assay). The class given is biochemical. As for the experimental part:
The protein:farnesyl transferase (PFT) or farnesyl protein transferase (FPT) inhibitory activity of compounds of the present invention were assayed in HEPES buffer (pH 7.4) containing 5 mM potassium phosphate and 20 μM ZnCl2. The solution also contained 5 mM DTT (dithiothreitol), 5 mM MgCl2, and 0.1% PEG 8000. Assays were performed in 96 well plates (Wallec) and employed solutions composed of varying concentrations of a compound of the present invention in 100% DMSO (dimethylsulfoxide). Upon addition of both substrates, radiolabeled farnesyl pyrophosphate ([1^3 H], specific activity 15-30 Ci/mmol, final concentration 134 nM) and (biotinyl)-Ahe-Thr-Lys-Cys-Val-Ile-Met ([3aS[3a alpha, 4 beta, 6a alpha]-hexahydro-2-oxo-1H-thieno[3,4-d]imidazole-5-pentanoic acid]-[7-aminoheptanoic acid]-Thr-Lys-Cys-Val-Ile-Met) (Ahe is 7-aminoheptanoic acid, Thr is threonine, Lys is lysine, Cys is cysteine, Val is valine, Ile is isoleucine and Met is methionine) (final concentration 0.2 μM), the enzyme reaction was started by addition of SF9 affinity purified rat farnesyl protein transferase. After incubation at 30° C. for 30 minutes, the reaction was terminated by diluting the reaction 2.5-fold with a stop buffer containing 1.5 M magnesium acetate, 0.2 M H3 PO4, 0.5% BSA (bovine serum albumin), and strepavidin beads (Amersham) at a concentration of 1.3 mg/mL. After allowing the plate to settle for 30 minutes at room temperature, radioactivity was quantitated on a microBeta counter (Model 1450, Wallec). The assay was also carried out without 5 mM potassium phosphate.

Setting [4] is: average obtained by additional tests, read-out: Clonogenic Assay IC50 (μM), number in parentheses.
The mark [5] stands for this setting: colonies counted after Day 13, read-out: Clonogenic Assay IC50.
Where [6] appears, read: ras-transformed cells, 18-hour incubation.
Setting [7] is: HEPES buffer pH 7.4, without 5 mM potassium phosphate, read-out: IC50 (μM) Hepes.
[8] abbreviates: HEPES buffer pH 7.4 containing 5 mM potassium phosphate, read-out: IC50 (μM) 5 mM K3 PO4 -2.
The mark [9] stands for this setting: with 5 mM potassium phosphate, average obtained by additional tests, read-out: IC50 (μM) 5 mM K3 PO4 -2, number in parentheses.
Setting [10] is: without 5 mM potassium phosphate, average obtained by additional tests, read-out: IC50 (μM) Hepes, number in parentheses.
The mark [11] stands for this setting: 312 h, colonies counted after Day 13, read-out: Clonogenic Assay IC50.

Read-outs that look alike come from different tables or passages of the source.

T1 sequence (Q02293 whole entry, one chain of several): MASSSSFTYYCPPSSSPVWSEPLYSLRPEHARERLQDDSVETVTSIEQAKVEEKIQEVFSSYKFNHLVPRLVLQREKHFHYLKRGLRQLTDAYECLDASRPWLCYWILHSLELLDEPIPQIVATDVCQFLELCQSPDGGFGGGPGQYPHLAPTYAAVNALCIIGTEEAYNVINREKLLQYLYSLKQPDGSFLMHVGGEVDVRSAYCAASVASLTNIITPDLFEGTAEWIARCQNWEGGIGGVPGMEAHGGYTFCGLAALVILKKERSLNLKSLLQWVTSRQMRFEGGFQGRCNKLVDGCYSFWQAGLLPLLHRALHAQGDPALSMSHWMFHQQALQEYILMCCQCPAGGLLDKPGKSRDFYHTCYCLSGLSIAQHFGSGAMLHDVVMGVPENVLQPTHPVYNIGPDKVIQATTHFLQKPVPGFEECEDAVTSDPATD

As a reminder, the IC50 is the point on the concentration scale where inhibition reaches its midpoint. With `O=C(CN(Cc1ccc(OCc2ccccc2)cc1)C(=O)[C@H](Cc1c[nH]cn1)NC(=O)OCc1ccccc1)NCCOCc1ccccc1` [Example 1, (S)-N-[(Phenylmethoxy)carbonyl]-L-histidyl-N-[2-(phenylmethoxy)ethyl]-N. sup.2-[[4-(phenylmethoxy)phenyl]-methyl]alycinamide], the IC50 was determined as 14.3 µM in experiment [1] (setting [4]), 2.7 µM in experiment [1] (setting [5]), 7.7 µM in experiment [3] (setting [7]) and 0.26 µM in experiment [3] (setting [8]). For the same compound, the minimal effective concentration in experiment [2] (setting [6]) stood at 1 µM.

In the case of `O=C(CN(Cc1ccc(Cl)cc1)C(=O)[C@H](Cc1c[nH]cn1)NC(=O)OCc1ccccc1)NCCOCc1ccccc1` [Example 3], the IC50 in experiment [1] (setting [5]) was greater than 1 µM; in experiment [3] (setting [7]) it was 3.1 µM; in experiment [3] (setting [8]), 0.97 µM; in experiment [3] (setting [9]), 0.61 µM; in experiment [3] (setting [10]) it was 2.8 µM. In experiment [2] (setting [6]), the minimal effective concentration worked out at 0.25 µM.

On to `CC(CNC(=O)CN(Cc1ccc(OCc2ccccc2)cc1)C(=O)[C@H](Cc1c[nH]cn1)NC(=O)OCc1ccccc1)c1ccccc1` (stereo partly drawn) [Example 4, (S)-[1-[(4-Benzyloxy-benzyl)-[(2-phenyl-propyl-carbamoyl)-methyl]-carbamoyl]-2-(1H-imidazole-4-yl)-ethyl]carbamic Acid Benzyl Ester], for which the IC50 in experiment [1] (setting [11]) is greater than 1 µM; in experiment [1] (setting [4]) it was 0.31 µM; in experiment [3] (setting [7]), 5.8 µM; in experiment [3] (setting [8]), 0.0076 µM; in experiment [3] (setting [9]), 0.005 µM; in experiment [3] (setting [10]), 0.15 µM. For the same compound, the minimal effective concentration in experiment [2] (setting [6]) is 0.05 µM.

Regarding `O=C(CN(Cc1ccc(OCc2ccccc2)cc1)C(=O)[C@H](Cc1c[nH]cn1)NC(=O)OCc1ccccc1)NCC(c1ccccc1)c1ccccc1` [Example 5, (S)-[1-[(4-Benzyloxy-benzyl)-[(2,2-diphenyl-ethylcarbamoyl)-methyl]-carbamoyl]-2-(1H-imidazole-4-yl)-ethvl]-carbamic Acid Benzyl Ester], the IC50 in experiment [1] (setting [4]) is 2.5 µM; in experiment [1] (setting [5]), 0.71 µM; in experiment [3] (setting [7]), 1.73 µM; in experiment [3] (setting [8]), 0.038 µM; in experiment [3] (setting [10]), 1.6 µM. The “Gel Shift (μM) MED, number in parentheses” value in experiment [2] (average obtained by additional tests) was 0.05 µM. Besides, the minimal effective concentration in experiment [2] (setting [6]) stood at 0.2 µM.

`CC(CNC(=O)CN(Cc1ccc(OCc2ccccc2)cc1)C(=O)[C@H](Cc1c[nH]cn1)NC(=O)NCc1ccccc1)c1ccccc1` (stereo partly drawn) [Example 6, (S)-N-(4-Benzyloxy-benzyl)-2-(3-benzyl-ureido)-3-(1H-imidazole-4-yl)-N-[(2-phenyl-propylcarbamoyl)-methyl]-propionamide]: the IC50 in experiment [1] (setting [11]) is greater than 1 µM; in experiment [3] (setting [7]), 0.2 µM; in experiment [3] (setting [8]), 0.0022 µM; in experiment [3] (setting [9]) it was 0.017 µM; in experiment [3] (setting [10]) it was 0.5 µM. The minimal effective concentration in experiment [2] (setting [6]) was determined as 0.2 µM.

On to `O=C(CN(Cc1ccc(OCc2ccccc2)cc1)C(=O)[C@H](Cc1c[nH]cn1)NC(=O)OCc1ccccc1)NCCc1ccccc1F` [Example 7, (S)-[1-((4-Benzyloxy-benzyl)-{[2-(2-fluoro-phenyl)-ethylcarbamoyl]-methyl]-carbamoyl)-2-(1H-imidazole-4-yl)-ethyl]-carbamic Acid Benzyl Ester], for which the IC50 in experiment [1] (setting [11]) was greater than 1 µM; in experiment [3] (setting [7]) it was 9.8 µM; in experiment [3] (setting [8]), 0.36 µM. In addition, in experiment [2] (setting [6]), the minimal effective concentration stood at 0.1 µM.

As for `O=C(CN(Cc1ccc(OCc2ccccc2)cc1)C(=O)[C@H](Cc1c[nH]cn1)NC(=O)OCc1ccccc1)NCCc1ccccn1` [Example 8, (S)-[1-{(4-Benzyloxy-benzyl)-[(2-pyridin-2-yl-ethylcarbamoyl)-methyl]-carbamoyl]-2-(1H-imidazole-4-yl)-ethyl]-carbamic Acid Benzyl Ester], the IC50 in experiment [1] (setting [11]) is greater than 1 µM; in experiment [3] (setting [7]), 7.8 µM; in experiment [3] (setting [8]), 0.3 µM. In experiment [2] (setting [6]), the minimal effective concentration is 0.2 µM.

For the compound `O=C(CN(Cc1ccc(OCc2ccccc2)cc1)C(=O)[C@H](Cc1c[nH]cn1)NC(=O)OCc1ccccc1)NCCc1ccccc1Br` [Example 9, (S)-[1-((4-Benzyloxy-benzyl)-{[2-(2-bromo-phenyl)-ethylcarbamoyl]-methyl}-carbamoyl)-2-(1H-imidazole-4-yl)-ethyl]-carbamic Acid Benzyl Ester], the IC50 was greater than 1 µM in experiment [1] (setting [11]), 4.5 µM in experiment [3] (setting [7]) and 0.36 µM in experiment [3] (setting [8]). The minimal effective concentration in experiment [2] (setting [6]) was determined as 0.2 µM.

`C[C@H](Cc1ccccc1)NC(=O)CN(Cc1ccc(OCc2ccccc2)cc1)C(=O)[C@H](Cc1c[nH]cn1)NC(=O)OCc1ccccc1` [Example 10]: the IC50 in experiment [1] (setting [5]) worked out at 0.71 µM; in experiment [3] (setting [7]) it was 0.58 µM; in experiment [3] (setting [8]) it was 0.018 µM. In addition, the “Gel Shift (μM) MED (minimal effective dose to observe inhibition of ras farnesylation)” value in experiment [2] (setting [6]) was in the range of 0.01 to 0.05 µM.

Take `C[C@@H](Cc1ccccc1)NC(=O)CN(Cc1ccc(OCc2ccccc2)cc1)C(=O)[C@H](Cc1c[nH]cn1)NC(=O)OCc1ccccc1` [Example 11]: the IC50 in experiment [1] (setting [5]) was greater than 1 µM; in experiment [3] (setting [7]), 2.5 µM; in experiment [3] (setting [8]), 0.082 µM. In addition, the minimal effective concentration in experiment [2] (setting [6]) is reported as 0.2 µM.

As to `O=C(CN(Cc1ccc(OCc2ccccc2)cc1)C(=O)[C@H](Cc1c[nH]cn1)NC(=O)OCc1ccccc1)NCC(c1ccccc1)c1ccccn1` (stereo partly drawn) [Example 12, (S)-[1-{(4-Benzyloxy-benzyl)-[(2-phenyl-2-pyridin-2-yl-ethylcarbamoyl)-methyl]-carbamoyl}-2-(1H-imidazole-4-yl)-ethyl]-carbamic Acid Benzyl Ester], the IC50 in experiment [1] (setting [11]) was greater than 1 µM; in experiment [3] (setting [7]) it was 1.1 µM; in experiment [3] (setting [8]) it was 0.062 µM. Besides, the minimal effective concentration in experiment [2] (setting [6]) came out at 0.2 µM.

In the case of `CC(CNC(=O)CN(Cc1ccc(Cl)cc1)C(=O)[C@H](Cc1c[nH]cn1)NC(=O)OCc1ccccc1)c1ccccc1` (stereo partly drawn) [Example 13, (S)-[1-{(4-Chloro-benzyl)-[(2-phenyl-propylcarbamoyl)-methyl]-carbamoyl}-2-(1H-imidazole-4-yl)-ethyl]-carbamic Acid Benzyl Ester], the IC50 in experiment [1] (setting [11]) was greater than 1 µM; in experiment [3] (setting [7]) it was 1.4 µM; in experiment [3] (setting [8]), 0.022 µM. Also, the minimal effective concentration in experiment [2] (setting [6]) came out at 0.2 µM.
